Test results: US20210308077A1, “COMBINATIONS INCLUDING BETA-ADRENORECEPTOR AGONISTS FOR TREATMENT OF PARKINSON`S DISEASE AND MOVEMENT DISORDERS” (The Brigham and Women`s Hospital, Inc., priority 2017, published 2021)
Structures can show the parent of a compound that is named as a salt.

Assays:
SNCA mRNA [1] = test: endogenous SNCA mRNA expression in SK-N-MC neuroblastoma cells (screening, replication, confirmation; qPCR); type: cell-based, human; conditions: for relative SNCA mRNA abundance, confirmation stage: 10 μM for 48 hours, vs vehicle control
Protocol: Human neuroblastoma SK-N-MC cells were acquired from American Type Culture Collection (ATCC). Cells were cultured at 37° C. in 5% CO2 in DMEM/F12 supplemented with 10% fetal bovine serum (FBS) and 100 units per ml penicillin and streptomycin. The drug library was obtained from the Laboratory for Drug Discovery in Neurodegeneration (LDDN), Harvard NeuroDiscovery Center, Boston, Mass. The drug library consisted of approximately 1,126 small molecules. About 586 of the compounds were from Prestwick Chemical's (Illkirch, France) library, a unique collection of mostly off-patent small organic molecules, 90% being marketed drugs and 10% bioactive alkaloids or related substances. About 400 compounds were from the SPECS collection (available on the world wide web at.specs.net). 140 compounds generated in house by the LDDN were also included in the library. Compounds for the screening were stored as DMSO stocks. All drugs used for Confirmation Assay were purchased from Sigma (St. Louis, Mo.).
Approximately 2×10^4low passage SK-N-MC cells were seeded per well in 384-well cell culture plates for 24 hours. Compounds were then transferred into each well (final concentration 1 μM) by using a BioMekFX (Beckman Coulter) equipped with a 384-channel pipetting head. After 48 hours in cell culture incubator, cells were washed once in cold phosphate-buffered saline (PBS) by using BioTek ELx405 select CW plate washer and then lysed at room temperature (22-24° C.) with lysis buffer (Applied Biosystems) using the Cell-to-CT procedures according to the manufacturer's instructions (Applied Biosystems). After 5 min, lysis was terminated by incubation with stop solution (Applied Biosystems). 11 μL of each lysate were transferred to 384-well plates for RT in a total volume of 25 μl. 4 μL of RT reaction were then transferred to new 384-well plates for qPCR.
Using the Cell-to-CT kit (Applied Biosystems) we performed expression analysis directly from SK-N-MC neuroblastoma cells cultured in 384-well plates through in situ cDNA synthesis. In this miniaturized assay, high copy numbers of SNCA and of endogenous controls were detected as indicated by raw cycle threshold values of 25.11±0.02 (mean CT value±SEM) and 20.2±0.02 for SNCA and Ubiquitin C (UBC), respectively. Technical variation (using identical cDNA loaded in multiple wells) and biological variation (cDNA synthesized in situ in each of 384 wells of cultured SK-N-MC cells treated with DMSO) were low, with coefficients of variation of 1% and 5.2% respectively. At least ten DMSO-treated controls were included on each 384-well plate as negative external control and calibrator. An equal amount of cDNA derived from Universal Reference RNA was spotted on all plates as plate-to-plate control. Control reactions lacking template or reverse transcription were assayed for contamination with genomic DNA.
41 compounds were forwarded into the Replication Assay. For each compound eight wells were treated with drug and compared to eight wells treated with DMSO alone. The Cell-to-CT procedure was employed using two new reference genes, ribosomal protein L13 (RPL13) and glucuronidase beta (GUSB) (instead of UBC) to control for input RNA. […] 10 compounds met these criteria and were forwarded from the Replication into the Confirmation Assay.
The ten forwarded compounds were used in the Confirmation Assay. For each compound ten wells were treated with drug and compared to ten wells treated with DMSO alone. RNA was extracted using TRIzol® following the manufacturers protocol (Life Technologies). Freshly ordered compounds were used. […] Six compounds met these criteria and were forwarded from the Confirmation Assay to the ELISA Assay stage (see below).
Total RNA from flash-frozen mice brain tissue, rodent primary cells, human neuroblastoma cells and iPSC-derived neuronal cells was isolated using TRIzol® (Life Technologies) following the manufacturer's protocol. […]

Snca mRNA [2] = test: Snca mRNA in rat primary cortical neurons; type: cell-based; conditions: metaproterenol 5 μM, clenbuterol 20 μM, salbutamol 10 μM, 48 hours
Protocol: (§1) Primary cortical cultures were generated from E18 Sprague-Dawley rat embryos. The cortical region was dissected out in Hank's Balanced Salt Solution buffered with Hepes and dissociated with 0.125% trypsin (Invitrogen) for 17 min at 37 ° C., followed by trituration. Dissociated cells were plated at a density of 5×10^5 cells/well or 2.5×10^5 cells/well in 12-well or 24-well plates, respectively precoated with poly-D lysine (100 μg/mL). The cells were cultured in Neurobasal medium with B-27 supplement (Invitrogen) and glutamax and gentamycin. Half of the medium was changed every 4 days. Cortical neurons were treated with β2AR agonists 10 days post plating. They were then harvested 48 hours post-treatment for mRNA extraction and 72 hours post-treatment for protein extraction.
Total RNA from flash-frozen mice brain tissue, rodent primary cells, human neuroblastoma cells and iPSC-derived neuronal cells was isolated using TRIzol® (Life Technologies) following the manufacturer's protocol. RNA concentration was measured using NanoDrop spectrophotometer (Thermo Fisher Scientific, Wilmington, De.). 2 μg of total RNA was reverse transcribed into cDNA using the High Capacity cDNA Reverse Transcription Kit from Applied Biosystems. Quantitative PCR was performed using TaqMan Universal PCR Master Mix (Applied Biosystems) on an ABI 7900HT instrument (Applied Biosystems) as described previously (31). For mouse brain tissue and rat primary cortical neuron samples, rodent-specific TaqMan Assay on-demand primers and probes were used to assay the relative abundance of target genes, and rodent Rp113 was used as a reference gene to normalize for RNA loading. Similar results were obtained when Actb or Ubc were used as controls for input RNA. For human neuroblastoma and iPSC-derived neuron samples, human TaqMan Assay on-demand probes were used to assay the relative abundance of target genes, and the geometric mean of the three human reference genes RPL13, GUSB and UBC was used to normalize for RNA loading. Expression values were analyzed using the comparative threshold cycle method (31).

α-synuclein protein = α-synuclein protein in rat primary cortical neurons (ELISA); type: cell-based; conditions: metaproterenol 5 μM, clenbuterol 20 μM, salbutamol 10 μM, 72 hours
Protocol: as §1
Protein lysis buffer containing 320 mM sucrose, 5 mM NaF, 1 mM Na3VO4, 10 mM Tris (pH 7.4), 1 mM EGTA, and 1 mM EDTA was used for mice brain tissue lysis. 100 μL of cold extraction buffer was added to each sample and homogenized in a dounce homogenizer. […] Total protein concentrations were determined by BCA assay (Thermo Scientific) according to the manufacturer's instructions. Total α-synuclein was quantified using an α-synuclein-specific sandwich ELISA.
An α-synuclein-specific Meso Scale Discovery (MSD) ELISA assay (described in Ref. (11)) was utilized for endogenous α-synuclein protein measurement. […] After samples were emptied and plate washed 3 times with TBS-T, sulfo-tagged SOY1 mAb (detection Ab) (generated using Sulfo-Tag-NHS-Ester (MSD) diluted in blocking buffer (6.7 ng/μl), was added to the plate (30 μl volumes/well) and shaken for 1 hour at room temperature. Following 3 washes, MSD Read (2×, diluted in ultrapure water) buffer was added and the plates were immediately measured using a MSD Sector 2400 imager. For confirmatory studies, an second α-synuclein-specific ELISA implementation was used employing a different, extensively published anti-α-synuclein detection antibody (Syn-1 mAb) and a different anti-α-synuclein capture antibody (1H9, courtesy Dr. Selkoe).

[3] = system: 6-hydroxydopamine rat model of PD; conditions: 6-hydroxydopamine rat model of PD (reference 9); cited from earlier work
[4] = system: H3K27 acetylation of SNCA promoter and enhancers; test: chromatin immunoprecipitation for H3K27ac at SNCA promoter and enhancers in SK-N-MC cells; type: cell-based, human; conditions: clenbuterol 10 μM, valproic acid 100 μM, propranolol 100 μM, vs vehicle
Protocol: Chromatin immunoprecipitation (ChIP) assays were performed using the Simple ChIP Enzymatic Chromatin IP kit protocol as recommended by the manufacturer (Cell Signaling Technology) with slight modifications. Briefly, ChIPs were performed on asynchronously growing SK-N-MC cells treated with clenbuterol (10 μM), valproic acid (100 μM) or propranolol (100 μM). Cross-linking was carried out with 1% formaldehyde for 10 min at room temperature. Cross-linking was subsequently quenched by adding glycine to a final concentration of 1× for 5 min. Cells were collected and washed twice with PBS, then resuspended in 2 mL of lysis buffer (as described in the protocol). After 10 min on ice, cells were treated with micrococcal nuclease and then sonicated to obtain DNA fragments of ˜500 bp as determined by agarose gel electrophoresis with ethidium bromide staining. Protein-DNA complexes were isolated by centrifugation at 10,000 rpm for 10 min. Supernatants with protein-DNA complexes were incubated overnight with rabbit polyclonal antibody directed against acetylated H3K27 (Abcam). Normal rabbit IgG was used as a negative control and Histone H3 rabbit mAb (ChIP formulated) as positive control. 2% of sample was saved as input. Antibody-protein-DNA complexes were further incubated for 2 hours with 30 μl of ChIP-grade Protein G magnetic beads to isolate antibody bound fractions of chromatin. Immuno-complexes were washed with the buffers provided and as described in the kit. Protein-DNA complexes were eluted and cross-links of pull down fractions and inputs (2% of total IP fraction) were reversed by 2 hours incubation in Proteinase K and 5 M NaCl at 65° C. […] 2 μl of immunoprecipitated DNA was analyzed by qPCR using a Power SYBR Green PCR Master mix (Applied Biosystems by Life technologies) on an ABI 7900HT instrument (Applied Biosystems) with the following temperature profile: 3 min of enzyme activation at 95° C. followed by 40 cycles of 95° C. for 15 s and 60° C. for 60 s. Sample from three independent immunoprecipitation assays were analyzed.

H3K27Ac = test: immunoblot with antibody against H3K27Ac in SK-N-MC cells; type: cell-based, human; conditions: vs vehicle-treated cells
Protocol: For western blot analysis, protein samples (20 μg) were run on a 4-20% gradient SDS-polyacrylamide gel (Biorad) and transferred onto a polyvinylidene fluoride (PVDF) membrane filter (0.2 μm; Biorad) using an electroblot apparatus (Bio-Rad, Hercules, Calif.) at 100V for 1 h in transfer buffer (25 mM Tris-HCl, 192 mM glycine, 0.1% SDS, 20% (v/v) methanol). The membrane was incubated in blocking solution (50 mM Tris-HCl, 200 mM NaCl, 1 mM MgCl2, pH 7.4) containing 5% non-fat dry milk powder for 1 hour at room temperature. The membrane was processed through sequential incubations with primary antibody overnight at 4° C. followed by incubation with horseradish peroxidase-conjugated species specific secondary antibody at 1:250 dilutions (Thermo Scientific Pierce). Immunoreactive proteins on the membrane were visualized using the SuperSignal™ West Pico Chemiluminescent kit (Thermo Scientific Pierce). Scanned western blots were analyzed using ImageJ software, version 1.47. Pictures were inverted and usually the background signal from an empty lane was subtracted to obtain specific signals for each lane.

SMILES | relative SNCA mRNA abundance, confirmation stage (SNCA mRNA [1]; SK-N-MC cells) | reduction of SNCA expression in the screening stage (SNCA mRNA [1]; SK-N-MC cells, 48 hours, vs DMSO, final concentration 1 μM) | SNCA mRNA expression, dose dependence (SNCA mRNA [1]; SK-N-MC cells, indicated doses, 48 hours) | endogenous Snca mRNA (Snca mRNA [2]) | α-synuclein protein levels (α-synuclein protein) | dopaminergic neurodegeneration [3] | relative SNCA mRNA abundance (with H3K27Ac blot) (SNCA mRNA [1]; SK-N-MC cells, vs vehicle-treated cells) | effect of co-treatment on the β2AR agonist effect on SNCA expression (SNCA mRNA [1]; co-treatment of clenbuterol with valproic acid) | H3K27 acetylation across SNCA promoter and two intronic enhancers (ChIP) [4] | H3K27Ac levels (Western blotting) (H3K27Ac)
CC(C)NCC(O)c1cc(O)cc(O)c1 (centres unmarked) [metaproterenol] | reduced SNCA mRNA abundance | more than 35% | lowered SNCA mRNA expression in a dose-dependent manner | significantly, but modestly, reduced | significantly, but modestly, reduced |  |  |  |  | 
Nc1nc2ccc(OC(F)(F)F)cc2s1 [riluzole hydrochloride] | fourth hit |  |  |  |  | attenuates dopaminergic neurodegeneration |  |  |  | 
CCCC(CCC)C(=O)O [valproic acid] |  |  |  |  |  |  | increase | abrogated the β2AR agonist effect on SNCA expression | increased H3K27 acetylation | increase
